# In patent US20130231346A1, “METHODS OF TREATING CANCER” (GLAXOSMITHKLINE INTELLECTUAL PROPERTY (NO.2) LIMITED, priority 2010, published 2013):
# Legend:
# [1] = test system: SW1573 NSCLC cells; assay: Caspase 3/7 activation, SW1573; type: cell-based; parameters: key: −: lack of caspase 3/7 activation after 24 hours of compound treatment; ++: moderate; +++: strong; ++++: very strong; conditions: SW1573, KRAS^G12C; BRG1 WT, LKB1 WT, CDKN2A MUT; 24 hours
# Description: (§2) A panel of 24 non-small cell lung carcinoma (NSCLC) cell lines harboring RAS mutations was analyzed for genomic alterations, gene expression profiling and protein phosphorylation in MAPK and PI3K pathways. Inhibition of cell growth and induction of apoptosis were determined by CellTiter-Glo® and caspase 3/7 activation assays after 72 and 24 hours of treatment, respectively.
# [2] = test system: SW900 NSCLC cells; assay: Caspase 3/7 activation, SW900; type: cell-based; parameters: key: −: lack of caspase 3/7 activation after 24 hours of compound treatment; ++: moderate; +++: strong; ++++: very strong; conditions: SW900, KRAS^G12V; BRG1 WT, LKB1 WT, CDKN2A MUT; 24 hours
# Description: (§3) Inhibition of cell growth and induction of apoptosis were determined by CellTiter-Glo® and caspase 3/7 activation assays after 72 and 24 hours of treatment, respectively.
# [3] = test system: RAS-mutant NSCLC cell lines; assay: Induction of apoptosis (caspase 3/7 activation) in panel of RAS-mutant NSCLC cell lines; type: cell-based; conditions: Ras mut NSCLC cell lines, caspase 3/7 activation, 24 hours of treatment, trihydrate
# Description: as §2
# [4] = test system: RAS-mutant NSCLC cell lines; assay: Inhibition of cell growth (CellTiter-Glo) in panel of RAS-mutant NSCLC cell lines; conditions: Ras mut NSCLC cell lines; CellTiter-Glo, 72 hours of treatment
# Description: Cells are plated in 384-well plates at 500 cells/well in culture media appropriate for each cell type, supplemented with 10% FBS and 1% penicillin/streptomycin, and incubated overnight at 37° C., 5% CO2. Cells are treated in a grid manner with dilution of Compound A^2 (20 dilutions, including no compound, of 2-fold dilutions starting from 1-20 μM depending of compound) from left to right on 384-well plate and also treated with Compound B^2 (20 dilutions, including no compound, of 2-fold dilutions starting from 1-20 μM depending of compound) from top to bottom on 384-well plate and incubated as above for a further 72 hours. In some instances compounds are added in a staggered manner and incubation time can be extended up to 7 days. Cell growth is measured using CellTiter-Glo® reagent according to the manufacturer's protocol and signals are read on a PerkinElmer EnVision™ reader set for luminescence mode with a 0.5-second read.
# Results are expressed as a percentage of the t=0 value and plotted against compound(s) concentration. The t=0 value is normalized to 100% and represents the number of cells present at the time of compound addition. The cellular response is determined for each compound and/or compound combination using a 4- or 6-parameter curve fit of cell viability against concentration using the IDBS XLfit plug-in for Microsoft Excel software and determining the concentration required for 50% inhibition of cell growth (gIC50). Background correction is made by subtraction of values from wells containing no cells.
# as §2
# [5] = test system: H157 NSCLC cells; assay: Caspase 3/7 activation, H157; type: cell-based; parameters: key: −: lack of caspase 3/7 activation after 24 hours of compound treatment; ++: moderate; +++: strong; ++++: very strong; conditions: H157, KRAS^G12R; BRG1 MUT, LKB1 MUT, CDKN2A WT; 24 hours
# Description: as §2
# [6] = test system: H1573 NSCLC cells; assay: Caspase 3/7 activation, H1573; type: cell-based; parameters: key: −: lack of caspase 3/7 activation after 24 hours of compound treatment; ++: moderate; +++: strong; ++++: very strong; conditions: H1573, KRAS^G12A; BRG1 MUT, LKB1 WT, CDKN2A WT; 24 hours
# Description: as §2
# [7] = test system: H1299 NSCLC cells; assay: Caspase 3/7 activation, H1299; type: cell-based; parameters: key: −: lack of caspase 3/7 activation after 24 hours of compound treatment; ++: moderate; +++: strong; ++++: very strong; conditions: H1299, KRAS^Q61H; BRG1 MUT, LKB1 WT, CDKN2A WT; 24 hours
# Description: as §3
# [8] = test system: Ras mutant cell lines; assay: Cell proliferation assays, Ras mutant cell lines; type: cell-based; conditions: in vitro
# Excerpt: (§1) MEK proteins are a node in a certain extracellular signal-related kinase ERK pathway which is commonly hyper-activated In tumor cells. Oncogenic mutations in both B-raf and Ras signal through MEK1 and MEK2. In vitro, 80% of cell lines carrying activating mutations of B-Raf and 72% of Ras mutant cell lines were sensitive to N-{3-[3-cyclopropyl-5-(2-fluoro-4-iodo-phenylamino)-6,8-dimethyl-2,4,7-trioxo-3,4,6,7-tetrahydro-2H-pyrido[4,3-d]pyrimidin-1-yl]phenyl}acetamide, or a pharmaceutically acceptable salt in cell proliferation assays, and a majority (83% of hematopoietic cancers from acute or chronic myeloid leukemia (AML or CML, respectively) origins were also very sensitive.
# [9] = test system: cell lines carrying activating mutations of B-Raf; assay: Cell proliferation assays, B-Raf mutant cell lines; type: cell-based; conditions: in vitro
# Excerpt: as §1
# [10] = test system: hematopoietic cancers from acute or chronic myeloid leukemia (AML or CML) origins; assay: Cell proliferation assays, AML/CML lines; type: cell-based; conditions: in vitro
# Excerpt: as §1
SMILES,Apoptosis Response (caspase 3/7 activation) [1],Apoptosis Response (caspase 3/7 activation) [2],"Response Rate (sensitivity/total lines tested), Cell Apoptosis (capsase 3/7) ([3]; listed as docetaxel) [%]","Response Rate (sensitivity/total lines tested), Cell Apoptosis (capsase 3/7) [3]","Response Rate (sensitivity/total lines tested), Cell growth inhibition [4]",Apoptosis Response (caspase 3/7 activation) [5],Apoptosis Response (caspase 3/7 activation) [6],Apoptosis Response (caspase 3/7 activation) [7],Share of cell lines sensitive in cell proliferation assays [8] [%],Share of cell lines sensitive in cell proliferation assays [9] [%],Share of hematopoietic cancers very sensitive in cell proliferation assays [10] [%]
"CC(=O)O[C@@]12CO[C@@H]1C[C@H](O)[C@@]1(C)C(=O)[C@H](O)C3=C(C)[C@@H](OC(=O)[C@H](O)[C@@H](NC(=O)OC(C)(C)C)c4ccccc4)C[C@@](O)([C@@H](OC(=O)c4ccccc4)[C@H]21)C3(C)C [Docataxel, (2R,3S)—N-carboxy-3-phenylisoserine,N-tert-butyl ester, 13-ester with 5β-20-epoxy-1,2α,4,7β,10β,13α-hexahydroxytax-11-en-9-one 4-acetate 2-benzoate, trihydrate]",−,−,42,42% (10/24),88% (21/24),++,++,−,,,
"CC(=O)Nc1cccc(-n2c(=O)n(C3CC3)c(=O)c3c(Nc4ccc(I)cc4F)n(C)c(=O)c(C)c32)c1 [Compound A, N-{3-[3-cyclopropyl-5-(2-fluoro-4-iodo-phenylamino)-6,8-dimethyl-2,4,7-trioxo-3,4,6,7-tetrahydro-2H-pyrido[4,3-d]pyrimidin-1-yl]phenyl}acetamide]",−,−,,,38% (9/24),−,−,−,72,80,83
